The target in one experiment is T1, pSTAT6 (Homo sapiens, UniProt P42226).
T1 construct: pY641-STAT6 MSD read-out
T1 sequence (P42226 1-847): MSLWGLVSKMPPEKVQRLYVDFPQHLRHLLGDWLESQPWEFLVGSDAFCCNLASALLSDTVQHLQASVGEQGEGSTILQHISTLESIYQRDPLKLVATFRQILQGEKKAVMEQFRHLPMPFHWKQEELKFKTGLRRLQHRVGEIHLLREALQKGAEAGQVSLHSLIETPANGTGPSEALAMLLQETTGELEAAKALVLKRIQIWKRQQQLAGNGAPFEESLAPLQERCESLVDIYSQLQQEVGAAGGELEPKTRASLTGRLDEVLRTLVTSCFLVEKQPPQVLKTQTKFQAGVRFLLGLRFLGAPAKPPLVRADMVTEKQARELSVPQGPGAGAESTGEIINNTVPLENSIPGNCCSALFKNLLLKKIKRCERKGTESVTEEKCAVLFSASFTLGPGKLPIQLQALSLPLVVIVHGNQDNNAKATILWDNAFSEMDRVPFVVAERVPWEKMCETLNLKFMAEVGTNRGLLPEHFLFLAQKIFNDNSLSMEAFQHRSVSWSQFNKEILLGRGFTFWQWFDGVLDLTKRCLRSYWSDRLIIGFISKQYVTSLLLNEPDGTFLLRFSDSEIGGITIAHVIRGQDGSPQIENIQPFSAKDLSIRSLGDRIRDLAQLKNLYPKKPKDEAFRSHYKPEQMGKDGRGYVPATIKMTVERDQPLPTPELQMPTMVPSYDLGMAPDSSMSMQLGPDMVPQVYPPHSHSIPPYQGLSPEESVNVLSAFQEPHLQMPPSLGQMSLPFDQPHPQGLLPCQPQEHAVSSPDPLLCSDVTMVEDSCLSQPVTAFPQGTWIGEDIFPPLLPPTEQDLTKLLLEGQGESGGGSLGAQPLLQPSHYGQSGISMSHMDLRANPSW
Kind of experiment: MSD-pSTAT-PBMC Assay, pSTAT6 (IL-4 stimulated PBMC). In kind it is cell-based. An outline of the steps:
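Human PBMC were recovered overnight, treated 3 h with compound, then stimulated for 10 min with 10 ng/mL IL-6 (pSTAT3) or 1 ng/mL IL-4 (pSTAT6). Lysates were read by MSD sandwich immunoassay, with total STAT capture and pY705-STAT3 or pY641-STAT6 detection. Signal minus unstimulated wells was normalized to DMSO, and IC50 came from a variable-slope fit.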

The target in the next experiment is T2, pSTAT3 (Homo sapiens, UniProt P40763).
T2 construct: pY705-STAT3 MSD read-out
Kind of experiment: MSD-pSTAT-PBMC Assay, pSTAT3 (IL-6 stimulated PBMC). In kind it is cell-based. An excerpt: Cryopreserved Peripheral Blood Mononuclear Cells (PBMC) are from AllCells. Recombinant Human IL-4 and IL-6 are from Peprotech. Mouse monoclonal anti-STAT3 antibody, rabbit monoclonal anti-pY705-STAT3 antibody, rabbit monoclonal Anti-pY641-STAT6 antibody, and lysis buffer are from Cell Signaling Technology (CST). Mouse monoclonal anti-STAT6 antibody is from BioLegend. Assay plates, blocker, and anti-rabbit secondary antibody are from Meso Scale Discovery (MSD).
Cryopreserved PBMCs were thawed out and allowed to recover overnight in IMDM+10% heat-inactivated FBS prior to plating 50,000 (STAT3) or 25,000 (STAT6) cells per well in 96-well U-bottom tissue culture plates. Cells were treated with compound for 3 hrs. then stimulated with 10 ng/mL IL-6 (STAT3) or 1 ng/mL IL-4 (STAT6) for 10 min. Cells were then spun down and washed with ice-cold PBS prior to lysing the cell pellet with 1× lysis buffer (CST) with 1×HALT protease and phosphatase inhibitor cocktail (Thermo). Lysates were transferred to and incubated overnight at 4° C. with shaking in QuickPlex 96-well high bind assay plates (MSD) pre-coated overnight with 30 μL per well of 0.6 μg/mL mouse monoclonal anti-STAT3 antibody (STAT3) or 2 μg/mL mouse monoclonal anti-STAT6 antibody (STAT6) in 1×PBS, and pre-blocked for 1 hour with 3% Blocker-A (MSD). Captured protein in the assay plates were then washed and probed with 25 μL per well of 0.25 μg/ml rabbit monoclonal anti-pY705-STAT3 antibody (STAT3) or 0.18 μg/ml rabbit monoclonal Anti-pY641-STAT6 antibody (STAT6) in 1% Blocker-A for 1 hour at room temperature with shaking, then washed and probed with 25 ul per well of 1 ug/ml Sulfo-TAG Labeled Goat Anti-Rabbit Antibody (MSD) in 1% Blocker-A for 1 hour at room temperature with shaking. Assay plates were then washed and 150 μL of 1× Read Buffer-T (MSD) was added to each well prior to reading on an SQ120 MSD Plate Reader. Assay signal from each sample was subtracted by the signal from unstimulated control wells and normalized to DMSO control wells. IC50 values were calculated using Graph Pad Prism Dose-Response Nonlinear Regression with variable slope. For both pSTAT3 and pSTAT6 A=≤100 nM; B=>100-1000 nM; C=>1000-3000 nM; and D=>3 μM.

[1] abbreviates: read-out: pSTAT6 IC50, compound 3 hrs, then 1 ng/mL IL-4 for 10 min, pY641-STAT6.
The mark [2] stands for this setting: read-out: pSTAT3 IC50, compound 3 hrs, then 10 ng/mL IL-6 for 10 min, pY705-STAT3.

Our source for the IC50 values is patent US20260308186A1, “STAT DEGRADERS AND USES THEREOF” (Recludix Pharma, Inc., priority 2023, published 2026).

pIC50: −log10 of the molar value. Read-outs that look alike come from different tables or passages of the source.

T2 sequence (P40763 whole entry): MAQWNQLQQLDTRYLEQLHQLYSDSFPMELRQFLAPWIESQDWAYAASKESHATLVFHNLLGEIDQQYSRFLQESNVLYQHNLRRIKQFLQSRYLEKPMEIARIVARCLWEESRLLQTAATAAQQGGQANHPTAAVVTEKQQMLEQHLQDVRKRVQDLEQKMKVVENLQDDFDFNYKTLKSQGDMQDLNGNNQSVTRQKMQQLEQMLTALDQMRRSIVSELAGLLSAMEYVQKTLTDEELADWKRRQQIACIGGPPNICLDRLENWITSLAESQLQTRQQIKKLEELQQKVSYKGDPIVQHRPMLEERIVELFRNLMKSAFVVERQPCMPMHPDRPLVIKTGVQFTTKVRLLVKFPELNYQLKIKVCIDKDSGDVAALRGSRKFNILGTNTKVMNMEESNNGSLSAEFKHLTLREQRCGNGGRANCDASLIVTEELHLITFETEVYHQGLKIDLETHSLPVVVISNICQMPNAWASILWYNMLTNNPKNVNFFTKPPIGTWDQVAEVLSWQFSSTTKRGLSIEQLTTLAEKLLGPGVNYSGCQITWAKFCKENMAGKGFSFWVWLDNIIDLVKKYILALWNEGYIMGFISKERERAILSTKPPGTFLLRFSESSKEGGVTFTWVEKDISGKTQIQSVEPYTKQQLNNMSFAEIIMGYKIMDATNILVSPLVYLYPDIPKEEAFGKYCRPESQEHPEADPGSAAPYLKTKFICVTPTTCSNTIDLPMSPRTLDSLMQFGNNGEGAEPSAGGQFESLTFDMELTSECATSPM

Turning to `CN(C(=O)[C@@H]1CC[C@@H]2CCN(C(=O)CCCCCC#Cc3cccc4c3CN(C3CCC(=O)NC3=O)C4=O)C[C@H](NC(=O)c3cc4cc(C(F)(F)P(=O)(OCOC(=O)C(C)(C)C)OCOC(=O)C(C)(C)C)ccc4[nH]3)C(=O)N21)c1ccccc1` (stereo partly drawn) [Compound 2, ((((2-(((5S,8S,10aR)-3-(8-(2-(2,6-Dioxopiperidin-3-yl)-1-oxoisoindolin-4-yl)oct-7-ynoyl)-8-(methyl(phenyl)carbamoyl)-6-oxodecahydropyrrolo[1,2-a][1,5]diazocin-5-yl)carbamoyl)-1H-indol-5-yl)difluoromethyl)phosphoryl)bis(oxy))bis(methylene) bis(2,2-dimethylpropanoate)], the pIC50 on pSTAT6 (setting [1]) and at pSTAT3 (setting [2]) was 5.52 to 6.00 throughout.
`CC(=O)N1CC[C@H]2CC[C@@H](C(=O)Nc3ccc(-c4ccc(NC(=O)CCCCCC#Cc5cccc6c5CN(C5CCC(=O)NC5=O)C6=O)cc4)cc3)N2C(=O)[C@@H](NC(=O)c2cc3cc(C(F)(F)P(=O)(OCOC(=O)C(C)(C)C)OCOC(=O)C(C)(C)C)ccc3[nH]2)C1` (stereo partly drawn) [Compound 4, ((((2-(((5S,8S,10aR)-3-acetyl-8-((4′-(8-(2-(2,6-dioxopiperidin-3-yl)-1-oxoisoindolin-4-yl)oct-7-ynamido)-[1,1′-biphenyl]-4-yl)carbamoyl)-6-oxodecahydropyrrolo[1,2-a][1,5]diazocin-5-yl)carbamoyl)-1H-indol-5-yl)difluoromethyl)phosphoryl)bis(oxy))bis(methylene) bis(2,2-dimethylpropanoate)]: the pIC50 is under 5.52 at pSTAT6 (setting [1]) and 5.52 to 6.00 on pSTAT3 (setting [2]).
Turning to `CCCC(=O)SCCOP(=O)(OCCSC(=O)CCC)C(F)(F)c1ccc2ccc(C(=O)N[C@H]3CN(C(=O)c4n[nH]c5ccc(C)cc45)CC[C@H]4CC[C@@H](C(=O)NCCCCCCCCC(=O)N[C@H](C(=O)N5C[C@H](O)C[C@H]5C(=O)N[C@@H](C)c5ccc(-c6scnc6C)cc5)C(C)(C)C)N4C3=O)cc2c1` [Compound 8, S,S′-((((difluoro(7-(((5S,8S,10aR)-8-((9-(((S)-1-((2S,4R)-4-hydroxy-2-(((S)-1-(4-(4-methylthiazol-5-yl)phenyl)ethyl)carbamoyl)pyrrolidin-1-yl)-3,3-dimethyl-1-oxobutan-2-yl)amino)-9-oxononyl)carbamoyl)-3-(5-methyl-1H-indazole-3-carbonyl)-6-oxodecahydropyrrolo[1,2-a][1,5]diazocin-5-yl)carbamoyl)naphthalen-2-yl)methyl)phosphoryl)bis(oxy))bis(ethane-2,1-diyl)) dibutanethioate], the pIC50 at pSTAT6 (setting [1]) is 5.52 to 6.00; on pSTAT3 (setting [2]) it was under 5.52.
Consider `CCCC(=O)SCCOP(=O)(OCCSC(=O)CCC)C(F)(F)c1ccc2ccc(C(=O)N[C@H]3CN(C(=O)c4n[nH]c5ccc(C)cc45)CC[C@H]4CC[C@@H](C(=O)NCCCCCCC#Cc5cccc6c5CN(C5CCC(=O)NC5=O)C6=O)N4C3=O)cc2c1` (stereo partly drawn) [Compound 10, S,S′-(((((7-(((5S,8S,10aR)-8-((8-(2-(2,6-dioxopiperidin-3-yl)-1-oxoisoindolin-4-yl)oct-7-yn-1-yl)carbamoyl)-3-(5-methyl-1H-indazole-3-carbonyl)-6-oxodecahydropyrrolo[1,2-a][1,5]diazocin-5-yl)carbamoyl)naphthalen-2-yl)difluoromethyl)phosphoryl)bis(oxy))bis(ethane-2,1-diyl)) dibutanethioate], for which the pIC50 at pSTAT6 (setting [1]) is over 7.00; on pSTAT3 (setting [2]), under 5.52.
Regarding `CCCC(=O)SCCOP(=O)(OCCSC(=O)CCC)C(F)(F)c1ccc2ccc(C(=O)N[C@H]3CN(C(=O)c4n[nH]c5ccc(C)cc45)CC[C@H]4CC[C@@H](C(=O)N(C)CCCCCCC#Cc5cccc6c5CN(C5CCC(=O)NC5=O)C6=O)N4C3=O)cc2c1` (stereo partly drawn) [Compound 12, S,S′-(((((7-(((5S,8S,10aR)-8-((8-(2-(2,6-dioxopiperidin-3-yl)-1-oxoisoindolin-4-yl)oct-7-yn-1-yl)(methyl)carbamoyl)-3-(5-methyl-1H-indazole-3-carbonyl)-6-oxodecahydropyrrolo[1,2-a][1,5]diazocin-5-yl)carbamoyl)naphthalen-2-yl)difluoromethyl)phosphoryl)bis(oxy))bis(ethane-2,1-diyl)) dibutanethioate], the values for the pIC50 at pSTAT6 (setting [1]) and on pSTAT3 (setting [2]) were over 7.00 and under 5.52, respectively.
Take `CCCOC(=O)[C@H](C)NP(=O)(Oc1ccccc1)C(F)c1ccc2ccc(C(=O)N[C@H]3CN(C(=O)c4n[nH]c5ccc(C)cc45)CC[C@H]4CC[C@@H](C(=O)N(C)CCCCCCC#Cc5cccc6c5CN(C5CCC(=O)NC5=O)C6=O)N4C3=O)cc2c1` (stereo partly drawn) [Compound 13, propyl (((7-(((5S,8S,10aR)-8-((8-(2-(2,6-dioxopiperidin-3-yl)-1-oxoisoindolin-4-yl)oct-7-yn-1-yl)(methyl)carbamoyl)-3-(5-methyl-1H-indazole-3-carbonyl)-6-oxodecahydropyrrolo[1,2-a][1,5]diazocin-5-yl)carbamoyl)naphthalen-2-yl)fluoromethyl)(phenoxy)phosphoryl)-L-alaninate]: the pIC50 at pSTAT6 (setting [1]) and at pSTAT3 (setting [2]) was under 5.52 in each case.
On to `Cc1ccc2onc(C(=O)N3CC[C@H]4CC[C@@H](C(=O)N(C)CCCCCCC#Cc5cccc6c5CN(C5CCC(=O)NC5=O)C6=O)N4C(=O)[C@@H](NC(=O)c4ccc5ccc(C(F)(F)P(=O)(OCCSC(=O)CC(C)C)OCCSC(=O)CC(C)C)cc5c4)C3)c2c1` (stereo partly drawn) [Compound 21, S,S′-(((((7-(((5S,8S,10aR)-8-((8-(2-(2,6-dioxopiperidin-3-yl)-1-oxoisoindolin-4-yl)oct-7-yn-1-yl)(methyl)carbamoyl)-3-(5-methylbenzo[d]isoxazole-3-carbonyl)-6-oxodecahydropyrrolo[1,2-a][1,5]diazocin-5-yl)carbamoyl)naphthalen-2-yl)difluoromethyl)phosphoryl)bis(oxy))bis(ethane-2,1-diyl)) bis(3-methylbutanethioate)], for which the pIC50 was over 7.00 on pSTAT6 (compound 3 hrs, then 1 ng/mL IL-4 for 10 min, pY641-STAT6, read-out: pSTAT6 IC50) and under 5.52 at pSTAT3 (compound 3 hrs, then 10 ng/mL IL-6 for 10 min, pY705-STAT3, read-out: pSTAT3 IC50).
